Assay results reported in PubChem BioAssay AID2060883 (Molecular Pharmacology Branch, DTP, NCI, 2025).

Tested on: 843782-103-R-J1-PDC complex spheroid viability
Assay: Anticancer human tumor 843782-103-R-J1-PDC patient-derived lung adenocarcinoma cell line growth inhibition [RAS]
Conditions: for IC50: curve of first compound; for viability, T/C: stronger effect = lower value; active = viability on the fitted dose curve at most 10% of control; inactive = the rest
Procedure, shortened: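 Tumour cells grown as complex spheroids with HUVEC endothelial cells and mesenchymal stem cells, treated with RAS pathway inhibitor combinations. Each agent spans half-log steps from near clinical Cmax, or 10 microM where Cmax is unknown.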
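Also: viability read after seven days of compound exposure.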

C[C@@H](NC(=O)c1ncnc(N)c1Cl)c1ncc(C(=O)Nc2cc(C(F)(F)F)c(Cl)cn2)s1 + C=CC(=O)N1CCN(c2nc(OCC3CCCN3C)nc3c(F)c(-c4nc(N)cc(C)c4C(F)(F)F)c(Cl)cc23)C(C)C1
> 10000 nM: IC50 (second compound 0.00316 µM) | IC50 (second compound 0.01 µM) | IC50 (second compound 0.0316 µM) | IC50 (second compound 0.1 µM) | IC50 (second compound 0.316 µM) | IC50 (second compound 1 µM)
inactive: viability, T/C (second compound 0.00316 µM, first compound 0.0316 µM) 92.2% | viability, T/C (second compound 0.00316 µM, first compound 0.1 µM) 84.3% | viability, T/C (second compound 0.00316 µM, first compound 0.316 µM) 92.1% | viability, T/C (second compound 0.00316 µM, first compound 1 µM) 91.4% | viability, T/C (second compound 0.00316 µM, first compound 3.16 µM) 106% | viability, T/C (second compound 0.00316 µM, first compound 10 µM) 84.9% | viability, T/C (second compound 0.01 µM, first compound 0.0316 µM) 85.2% | viability, T/C (second compound 0.01 µM, first compound 0.1 µM) 84.2% | viability, T/C (second compound 0.01 µM, first compound 0.316 µM) 88.4% | viability, T/C (second compound 0.01 µM, first compound 1 µM) 88.5% | viability, T/C (second compound 0.01 µM, first compound 3.16 µM) 91.9% | viability, T/C (second compound 0.01 µM, first compound 10 µM) 91.8% | viability, T/C (second compound 0.0316 µM, first compound 0.0316 µM) 87.5% | viability, T/C (second compound 0.0316 µM, first compound 0.1 µM) 79.8% | viability, T/C (second compound 0.0316 µM, first compound 0.316 µM) 87% | viability, T/C (second compound 0.0316 µM, first compound 1 µM) 84.9% | viability, T/C (second compound 0.0316 µM, first compound 3.16 µM) 94.5% | viability, T/C (second compound 0.0316 µM, first compound 10 µM) 89.1% | viability, T/C (second compound 0.1 µM, first compound 0.0316 µM) 90.7% | viability, T/C (second compound 0.1 µM, first compound 0.1 µM) 83.7% | viability, T/C (second compound 0.1 µM, first compound 0.316 µM) 87.3% | viability, T/C (second compound 0.1 µM, first compound 1 µM) 90.8% | viability, T/C (second compound 0.1 µM, first compound 3.16 µM) 91.5% | viability, T/C (second compound 0.1 µM, first compound 10 µM) 88.7% | viability, T/C (second compound 0.316 µM, first compound 0.0316 µM) 88.5% | viability, T/C (second compound 0.316 µM, first compound 0.1 µM) 87.9% | viability, T/C (second compound 0.316 µM, first compound 0.316 µM) 90.4% | viability, T/C (second compound 0.316 µM, first compound 1 µM) 86.6% | viability, T/C (second compound 0.316 µM, first compound 3.16 µM) 95.7% | viability, T/C (second compound 0.316 µM, first compound 10 µM) 91.8% | viability, T/C (second compound 1 µM, first compound 0.0316 µM) 82.7% | viability, T/C (second compound 1 µM, first compound 0.1 µM) 92.2% | viability, T/C (second compound 1 µM, first compound 0.316 µM) 97% | viability, T/C (second compound 1 µM, first compound 1 µM) 85.3% | viability, T/C (second compound 1 µM, first compound 3.16 µM) 92.5% | viability, T/C (second compound 1 µM, first compound 10 µM) 87.3%

CC(C)n1nc(-c2ccc3oc(N)nc3c2)c2c(N)ncnc21 + CCn1c(-c2cccnc2C(C)OC)c2c3cc(ccc31)N1CCOC(CC(NC(=O)C(C(C)C)N(C)C(=O)C3(F)CCN(C(=O)C#CC(C)(C)N(C)C)CC3)C(=O)N3CCCC(N3)C(=O)OCC(C)(C)C2)C1
5.28 nM: IC50 (second compound 0.003 µM)
5.1 nM: IC50 (second compound 0.03 µM)
inactive: viability, T/C (second compound 0.000949 µM, first compound 0.000316 µM) 84.1% | viability, T/C (second compound 0.000949 µM, first compound 0.001 µM) 66.4% | viability, T/C (second compound 0.000949 µM, first compound 0.00316 µM) 55.4% | viability, T/C (second compound 0.000949 µM, first compound 0.01 µM) 52.8% | viability, T/C (second compound 0.000949 µM, first compound 0.0316 µM) 28.5% | viability, T/C (second compound 0.000949 µM, first compound 0.1 µM) 14.9% | viability, T/C (second compound 0.003 µM, first compound 0.000316 µM) 78.1% | viability, T/C (second compound 0.003 µM, first compound 0.001 µM) 72.7% | viability, T/C (second compound 0.003 µM, first compound 0.00316 µM) 52.9% | viability, T/C (second compound 0.003 µM, first compound 0.01 µM) 44.4% | viability, T/C (second compound 0.003 µM, first compound 0.0316 µM) 27.1% | viability, T/C (second compound 0.003 µM, first compound 0.1 µM) 18.3% | viability, T/C (second compound 0.00949 µM, first compound 0.000316 µM) 72.7% | viability, T/C (second compound 0.00949 µM, first compound 0.001 µM) 62.8% | viability, T/C (second compound 0.00949 µM, first compound 0.00316 µM) 57.3% | viability, T/C (second compound 0.00949 µM, first compound 0.01 µM) 46.1% | viability, T/C (second compound 0.00949 µM, first compound 0.0316 µM) 28% | viability, T/C (second compound 0.00949 µM, first compound 0.1 µM) 15.5% | viability, T/C (second compound 0.03 µM, first compound 0.000316 µM) 70.4% | viability, T/C (second compound 0.03 µM, first compound 0.001 µM) 69.9% | viability, T/C (second compound 0.03 µM, first compound 0.00316 µM) 53.6% | viability, T/C (second compound 0.03 µM, first compound 0.01 µM) 42.7% | viability, T/C (second compound 0.03 µM, first compound 0.0316 µM) 25.3% | viability, T/C (second compound 0.03 µM, first compound 0.1 µM) 17.1% | viability, T/C (second compound 0.0949 µM, first compound 0.000316 µM) 73% | viability, T/C (second compound 0.0949 µM, first compound 0.001 µM) 64% | viability, T/C (second compound 0.0949 µM, first compound 0.00316 µM) 70.5% | viability, T/C (second compound 0.0949 µM, first compound 0.01 µM) 42.1% | viability, T/C (second compound 0.0949 µM, first compound 0.0316 µM) 25.6% | viability, T/C (second compound 0.0949 µM, first compound 0.1 µM) 15.8% | viability, T/C (second compound 0.3 µM, first compound 0.000316 µM) 71.3% | viability, T/C (second compound 0.3 µM, first compound 0.001 µM) 66.7% | viability, T/C (second compound 0.3 µM, first compound 0.00316 µM) 47.3% | viability, T/C (second compound 0.3 µM, first compound 0.01 µM) 40.3% | viability, T/C (second compound 0.3 µM, first compound 0.0316 µM) 23.7% | viability, T/C (second compound 0.3 µM, first compound 0.1 µM) 12.6%
5.87 nM: IC50 (second compound 0.00949 µM)
6.59 nM: IC50 (second compound 0.000949 µM)
7.35 nM: IC50 (second compound 0.0949 µM)
3.57 nM: IC50 (second compound 0.3 µM)
